Measurements: a melting point compilation (Tetko et al.; mined from patent text by program, amines drawn as free bases though some values may be those of a salt)

melting point	Compound
115 to 136 °C	O=C(CCCC(Cc1c[nH]c2ccccc12)(NC(=O)OC1C2CC3CC(C2)CC1C3)C(=O)NCCc1ccccc1)OCc1ccccc1 (centres undefined)
131 to 133 °C	COc1ccc(S(=O)(=O)N2c3ccccc3-c3ccccc3C2C)cc1OC (centres undefined)
89 to 91 °C	COc1ccc(C(=O)c2cnn(C)c2O)c(Cl)c1N=C1CCCCS1=O (centres undefined)
85 to 88 °C	CC(=O)SCc1ccccc1CCC(=O)Nc1cccc(C(=O)OCCBr)c1
224 to 226 °C	CCCc1c(C(C)=O)ccc(OCc2nc3nccnc3c(=O)[nH]2)c1O
233 to 235 °C	Cc1cc(-c2noc3cc(O)ccc23)ccc1O
320 to 322 °C	O=c1c2ccc(Cl)cc2[nH]c2c(O)nn(-c3ccc(OC(F)(F)F)cc3)c(=O)c12
179 to 181 °C	C/C(=C\c1ccc(C(=O)O)cc1)c1ccc2c(c1)C(C)(C)CCO2
112 °C	C#CCc1c(C)nc2c(OCc3ccccc3)cccn12
254 °C	CCCC1=C(C#N)C(c2ccccc2Cl)c2c(n[nH]c2-c2cccc3ccccc23)N1 (centres undefined)
67 °C	COC(=O)c1ccc(OC2=C(Oc3ccc(C(=O)OC)cc3)C(F)(F)C(F)(F)C2(F)F)cc1
68 to 70 °C	Cc1nc2ccccc2nc1S(=O)Cc1ccccc1N(C)C (centres undefined)
59 to 60 °C	COC(=O)Cc1nc(-c2ccc(C)cc2)oc1C
86 to 87 °C	Cc1c(SCCCCSCCn2c([N+](=O)[O-])cnc2C)ccnc1CO
221 to 224 °C	Nc1c(-c2cccs2)nsc1C(=O)O
50 to 56 °C	CNCc1ccc(CSCCNC2=NS(=O)(=O)N=C2NC)o1
222 to 224 °C	CSCCCn1cc(C2=C(c3cn(C)c4ccccc34)C(=O)NC2=O)c2ccccc21
> 300 °C	CC(C)(C)OC(=O)NCc1[nH]c(C(=O)O)cc(=O)c1O
178 to 180 °C	Clc1ccc(-c2ccn3nccc3n2)cc1
138 to 139 °C	CC(=O)c1cccc(N2CCN(CCCCOc3ccc4c(n3)NC(=O)CC4)CC2)c1Cl
29 to 32 °C	CCC(=O)NC(C)OC (centres undefined)
127 to 130 °C	CCCOC(C)c1cccc2[nH]c3cnc(C(=O)OCC)c(COC)c3c12 (centres undefined)
117 to 119 °C	O=C(Nc1ccc(Oc2ccnc(NCC3CC3)n2)c2ccccc12)c1cc(F)cc(N2CCCCC2)c1
120 to 124 °C	CCNC(=NC#N)NC
310 to 313 °C	N=C(N)c1ccc(-n2ncn(-c3ccc(CCC(=O)O)cc3)c2=O)cc1

melting point	Compound
136 to 139 °C	CC(=O)N1CCc2ccc(C(=O)c3cccc(F)c3)cc2C1
210 to 213 °C	Clc1ccc2c(c1)C(c1ccccc1)NC1=NCCN12 (centres undefined)
> 250 °C	Nc1nc2c(ncn2C2CCC(CO)O2)c(=O)[nH]1 (centres undefined)
205 °C	O=C(CC1NC(=O)c2ccsc2-n2cccc21)c1ccccc1 (centres undefined)
126 °C	Cn1c([N+](=O)[O-])cnc1COc1ccc(C(F)(F)F)cc1[N+](=O)[O-]
180 to 182 °C	COc1ccc(C)c(Nc2c(C#N)cnc3cc(Cl)c([N+](=O)[O-])cc23)c1
180 to 181 °C	CCCCCS(=O)(=O)NC(=O)/C=C/c1ccc(OCCC(C)=O)cc1Oc1ncc(C(F)(F)F)cc1Cl
82 to 83 °C	CCOC(=O)c1ccc(N2CCOCC2)cc1
229 to 230 °C	Cc1ccc(C(=O)Nc2nc(=O)n(C)cc2F)cc1
99 to 101 °C	CCCCN=C1SC(=CC(=O)O)C(=O)N1CCCC
92 to 93 °C	COc1ccc(C2=CCCS(=O)C2)cc1OC1CCCC1 (centres undefined)
175 °C	CN1C(=O)C(Cc2ccccc2)N(C)C(=O)C1=Cc1c(C#N)ccc(F)c1F (centres undefined)
204 to 205 °C	Cc1ccc2c(c1)NC(=O)CO2
53 to 58 °C	CC(COc1ccc(CC2SC(=O)NC2=O)cc1)C1CC(COc2ccccc2)OC1=S (centres undefined)
218 °C	CS(=O)(=O)c1ccc(C2=C(c3ccc(-c4cscn4)cc3)C(=O)OC2)cc1F
334 to 335 °C	O=P(O)(O)COc1c(Br)cc(-c2c3ccccc3c(Br)c3sc4ccccc4c23)cc1Br
122 to 125 °C	CC(=O)OC1CSC(Oc2cncc(-c3ccnc(F)c3)c2)C(OC(C)=O)C1OC(C)=O (centres undefined)
242 to 244 °C	S=c1c2c(c3cccnc3n1-c1ccccc1)OCC2
169 °C	Cc1cccc(NC(=O)NCC(=O)N2[C@@H](C(=O)NC(C)(C)C)CC[C@H]2c2ccccc2)c1 (racemic)
194 to 196 °C	O=C(c1ccc2ccccc2n1)N1CCN=C1Nc1c(Cl)cccc1Cl
100 to 102 °C	CN(CCO)c1nccc(Oc2ccc(NC(=O)c3cc(F)cc(N4CCOCC4)c3)c3ccccc23)n1
266 °C	COC(=O)c1c(C)n(-c2cc([N+](=O)[O-])c(C)cc2C)cc(Cl)c1=O
212 to 215 °C	O=C(O)c1cccc(Oc2cccc(-c3nn(Cc4ccc(C(F)(F)P(=O)(O)O)c(Cl)c4)c(=Nc4ccc(Cl)c(Cl)c4)s3)c2)c1
186 to 188 °C	COCOC1CCN(c2ccc(NC(=O)c3cnn(-c4ccc(Cl)cc4)c3C)cc2C#N)CC1
129 to 130 °C	CCOC(=O)c1c(CN(C)O)nc2sc3c(c2c1-c1ccc(OC)c(OC)c1)CCN(C(=O)c1ccccc1)C3

melting point	Compound
201 to 203 °C	CSc1cc2nnc(C)n2c(C)n1
188 to 190 °C	CC(C)=CCCC(C)C1CCC2C3CC(O)C4CC(O)CCC4(C)C3CCC12C (centres undefined)
39 to 40 °C	CC(C)CC(=O)c1ccc(Cl)cc1
204 to 206 °C	CCOC(=O)c1cc2cc(N)ccc2nn1
75 to 83 °C	CCCCCCCSC[C@H](N[C@@H](C)C(=O)N1CCC[C@H]1C(=O)O)C(=O)O
191 °C	CCCCN(N=Nc1[nH]cnc1C(N)=O)C(C)=N
80.1 °C	CC(C)Cc1cccc(-c2nc(C(C)C)n(C)n2)n1
139 to 140 °C	CCc1nc2c(-c3ccc(OC)cc3Cl)ncnc2n1C(C1CC1)C1CC1
129 to 131 °C	O=C1c2ccccc2S(=O)(=O)N1CSc1nnc(SCCN2CCOCC2)s1
158 to 160 °C	O=C(Nc1ccc(-n2nc(C(F)(F)F)cc2C(F)(F)F)cc1)c1cccc(Br)c1
122 to 124 °C	c1ccc(CSc2nc3nc(-c4ccccc4)cc(-c4ccccc4)n3n2)cc1
81 to 82.5 °C	N#CC(c1ccc([N+](=O)[O-])cc1)c1ccc(Cl)cc1Cl (centres undefined)
131 °C	CCCC(=N)Nc1ccccc1N1CCOCC1
74 to 75 °C	CCOC(=O)Cc1ccc(OCc2ccc3oc([N+](=O)[O-])c(-c4ccccc4)c3c2)cc1
133 to 135 °C	CC(C)C(NC(=O)OC(C)(C)C)C(=O)NC(C(=O)OC1CC(n2cc(C=CBr)c(=O)[nH]c2=O)OC1CN=[N+]=[N-])C(C)C (centres undefined)
74.5 to 77.5 °C	Nc1c(-c2cc(Cl)ccc2O)nnn1-c1ccc(C(F)(F)F)cc1Cl
221 to 224 °C	CC(=O)OCCn1c2c(c3ccccc3c1=O)C(=O)c1ccccc1-2
66 °C	COC(=O)CCNC(=O)C(=Cc1ccccc1)CSC(=O)c1ccccc1
61 to 63 °C	N#Cc1cnn(Cc2ccccc2)c1
172 to 173 °C	Cc1ccc(N(c2ccc(-c3ccc(N(c4ccccc4)c4cccc(C)c4)cc3)cc2)c2ccc3ccc4cccc5ccc2c3c45)cc1
172 to 174 °C	COC(=O)c1ccc(Cc2cccc3ccc(NC(=O)CC4CCCC4)cc23)c(OC)c1
214 to 215 °C	O=C1Cc2cc(-c3ccccc3)ccc2N1
160 to 165 °C	Cc1ccc2c(c1)C1CN(CCCC#N)CCC1N2 (centres undefined)
129 to 130 °C	Cc1oc(-c2ccccc2)nc1COc1ccc2c(-c3ccccc3)c(CCl)oc2c1
176 to 180 °C	Nc1cccc(-c2ccc(CCN3CCC4(CC3)NC(=O)N(CCc3ccccc3)C4=O)cc2)n1

melting point	Compound
148 to 151 °C	CCCCCCOc1ccc(C(=O)NCCN(O)C(N)=O)cc1
119 to 121 °C	COCCSNS(=O)(=O)c1ccccc1
142 to 143 °C	Cc1cccc(-n2nccc2-c2nn(-c3cccc(C(F)(F)F)c3)ccc2=O)c1
106 °C	Cc1cc(O)ccc1-c1cc2ccccc2[nH]1
162 °C	Cc1ccc(S(=O)(=O)OCC2OC(n3ccc(=O)[nH]c3=O)CC2O)cc1 (centres undefined)
203 to 206 °C	CCCc1nc2c(N)nc3ccccc3c2n1CC(C)(C)OCCS(C)(=O)=O
178 to 180 °C	CCOC(=O)C1(NC(=O)c2ccc3c(Cl)cnc(Cl)c3c2)CCCC1
215 to 217 °C	CS(=O)(=O)N1CC2(COc3cc4c(cc32)OCO4)c2ccccc21 (centres undefined)
49 to 54 °C	O=CNc1ccccc1CCO
88.5 to 89.5 °C	CC(C)(C)OC(=O)CN1C(=O)C=C(CC(NC(=O)OC(C)(C)C)C(=O)OC(C)(C)C)C1=O (centres undefined)
188 to 190 °C	CC(=O)N[C@@H](CSC(=O)c1ccccc1)C(=O)NCCSC(=O)c1ccccc1
227 to 228 °C	Cc1[nH]c(=O)ccc1C(=O)c1cccs1
136 to 137 °C	CC(=O)Oc1cc(C(C)C)ccc1C1(OC(C)=O)C(=O)c2ccccc2C1=O
200 to 201 °C	Cc1cc(C#N)cc(C(=O)c2c(C(C)C)c(=O)[nH]c(=O)n2CC(C)C)c1
75 to 76 °C	CC(O)C1CCC(CNC(=O)OC(C)(C)C)CC1 (centres undefined)
223 °C	Cc1[nH]ncc1C(=O)O
116 to 125 °C	NNC(=O)Cc1ccccc1S(N)(=O)=O
201 to 204 °C	CN1C(=O)CCC(=O)N1c1cc(-c2ccnc(Nc3cccc(Cl)c3)n2)ccn1
70 to 72 °C	O=C(Nc1ccc(OCCCN2CCC3(CC2)OCCO3)c2ccccc12)c1cc(F)cc(N2CCCCC2)c1
158 to 160 °C	CC(C)Oc1c(-c2ccc(S(N)(=O)=O)cc2)cnn(CC(F)(F)F)c1=O
109 to 110 °C	COc1cc(CCCC2SC(=O)NC2=O)ccc1OCc1nc(-c2ccco2)oc1C (centres undefined)
91 to 94 °C	O=[N+]([O-])c1cc(OCC2=CCCSC2)c(Cl)cc1F

Compound	melting point
Nc1cc(NC(=O)c2cc3cc(F)ccc3n2Cc2cccc(F)c2)ccn1	217 to 218 °C
O=C(CCl)c1cccn1C(c1ccccc1)c1ccccc1F (centres undefined)	86 to 91 °C
